Experimental data from patent publication US11046691B1 (IDEAYA BIOSCIENCES, INC., priority 2018, dated 2021).

These compounds were tested against T1, hMAT2A (Homo sapiens (Human), UniProt P31153) (assay: Malachite Green Assay (MAT2A enzyme inhibition)). Settings: hMAT2A 50 nM, substrates 500 uM each, 1 hour.
Type: biochemical
Experimental: The ability of the compound of present disclosure to inhibit MAT2A enzyme was determined using the Malachite Green or Phosphate Sensor Fluorescence Assay described below.
L-methionine Substrate: Alfa Aesar catalog #J61904
ATP Substrate: Alfa Aesar cat #J60336
Malachite Green Detection Reagent: Millipore Sigma catalog #MAK307-1KT
Assay buffer: 50 mM Tris, pH 7.5/50 mM KCl/10 mM MgCl2/0.01% Brij-35/1 mM DTT/0.1% BGG
The plate was centrifuged at 1000 rpm for 1 minute and then incubated at room temperature for 1 hour. 5 μL of malachite green detection reagent was added to all the test wells and the plate was centrifuged at 1000 rpm for 1 minute and then incubated at room temperature for 30 minutes. The plate was read for absorbance at 620 nm on a plate reader (e.g., Infinite M1000).

T1 sequence (P31153 whole entry): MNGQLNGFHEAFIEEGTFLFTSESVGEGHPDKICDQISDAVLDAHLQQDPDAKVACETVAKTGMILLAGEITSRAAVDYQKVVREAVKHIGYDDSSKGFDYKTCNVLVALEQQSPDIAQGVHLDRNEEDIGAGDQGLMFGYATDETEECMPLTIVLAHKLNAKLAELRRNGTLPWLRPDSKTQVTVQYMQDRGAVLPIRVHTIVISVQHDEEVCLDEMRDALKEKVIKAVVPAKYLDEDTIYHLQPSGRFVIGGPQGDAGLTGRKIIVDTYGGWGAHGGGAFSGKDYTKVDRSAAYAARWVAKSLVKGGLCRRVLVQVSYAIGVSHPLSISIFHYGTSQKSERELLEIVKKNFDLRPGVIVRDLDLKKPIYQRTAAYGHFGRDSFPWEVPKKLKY

| SMILES | IC50 |
| --- | --- |
| O=c1nc(N[C@H]2CCOC2)c2ccc(Cl)cc2n1-c1ccccc1 [Example 22, (S)-7-chloro-1-phenyl-4-((tetrahydro-furan-3-yl)amino)-quinazolin-2(1H)-one] | 200 to 500 nM |
| O=c1nc(NC2COC2)c2ccc(Cl)cc2n1-c1ccccc1 [Example 21, 7-Chloro-4-(oxetan-3-ylamino)-1-phenylquinazolin-2(1H)-one] | 200 to 500 nM |
| CN(C)c1nc(=O)n(-c2cc(O)cc(F)c2)c2cc(Cl)ccc12 [Example 37, 4-(dimethylamino)-7-chloro-1-(5-fluoro-3-hydroxyphenyl)hydro-quinazolin-2-one] | < 200 nM |
| CNc1nc(=O)n(-c2cccc(CCO)c2)c2cc(Cl)ccc12 [Example 47, 7-chloro-1-[3-(2-hydroxyethyl)phenyl]-4-(methylamino)-hydroquinazolin-2-one] | < 200 nM |
| O=c1nc(N2CCOCC2)c2ccc(Cl)cc2n1-c1ccccc1 [Example 28, 7-chloro-4-morpholino-1-phenyl-quinazolin-2(1H)-one] | 200 to 500 nM |
| CNc1nc(=O)n(-c2ccccc2)c2cc(C#N)ccc12 [Example 50, 4-(methylamino)-2-oxo-1-phenyl-1,2-dihydro-quinazoline-7-carbonitrile] | < 200 nM |
| CNc1nc(=O)n(-c2ncccn2)c2cc(Cl)ccc12 | < 200 nM |
| CNc1nc(=O)n(-c2ccccc2)c2cc(Br)ccc12 | < 200 nM |
| CN1CCN(c2nc(=O)n(-c3ccccc3)c3cc(Cl)ccc23)CC1 [Example 27, 7-chloro-4-(4-methylpiperazin-1-yl)-1-phenyl-quinazolin-2(1H)-one] | 1000 to 10000 nM |
| CN(C)c1nc(=O)n(-c2ccccc2)c2cc(Br)ccc12 [Example 34, 7-bromo-4-(dimethylamino)-1-phenyl-quinazolin-2(1H)-one] | < 200 nM |
| CNc1nc(=O)n(-c2cccc(O)c2)c2cc(Cl)ccc12 [Example 46, 7-chloro-1-(3-hydroxyphenyl)-4-(methylamino)-hydroquinazolin-2-one] | < 200 nM |
| CNc1nc(=O)n(-c2cccc(Cl)c2)c2cc(Cl)ccc12 [Example 56, 7-Chloro-1-(3-chlorophenyl)-4-(methylamino)hydroquinazolin-2-one] | < 200 nM |
| CNc1nc(=O)n(-c2ccccc2)c2cc(C3CC3)ccc12 [Example 45, 7-cyclopropyl-4-(methylamino)-1-phenylquinazolin-2(1H)-one] | < 200 nM |
| CNc1nc(=O)n(-c2ccccc2)c2cc(Cl)cc(F)c12 | < 200 nM |
| O=c1nc(N2CC[C@H](O)C2)c2ccc(Cl)cc2n1-c1ccccc1 [Example 26, (S)-7-chloro-4-(3-hydroxypyrrolidin-1-yl)-1-phenylquinazolin-2(1H)-one] | < 200 nM |
| CNc1nc(=O)n(-c2ccncc2)c2cc(Cl)ccc12 | 1000 to 10000 nM |
| CNc1nc(=O)n(-c2cnccn2)c2cc(Cl)ccc12 | 200 to 500 nM |
| CNc1nc(=O)n(-c2ccccc2)c2cc(C)ccc12 [Example 44, 7-methyl-4-(methylamino)-1-phenyl-quinazolin-2(1H)-one] | < 200 nM |
| CN(C)c1nc(=O)n(-c2cccc(Br)c2)c2cc(Cl)ccc12 [Example 60, 1-(3-bromophenyl)-7-chloro-4-(dimethylamino)quinazolin-2(1H)-one] | < 200 nM |
| CN(C)c1nc(=O)n(-c2ccccc2)c2cc(F)ccc12 [Example 35, 4-(dimethylamino)-7-fluoro-1-phenyl-quinazolin-2(1H)-one] | < 200 nM |
| CNc1nc(=O)n(-c2ccccc2)c2cc(OC)ccc12 [Example 49, 7-methoxy-4-(methylamino)-1-phenyl-quinazolin-2(1H)-one] | < 200 nM |

Continued, values first:

| IC50 | SMILES |
| --- | --- |
| < 200 nM | CNc1nc(=O)n(-c2cccc(F)c2)c2cc(Cl)ccc12 [Example 61, 7-chloro-1-(3-fluorophenyl)-4-(methylamino)quinazolin-2(1H)-one] |
| < 200 nM | N#CC1CN(c2nc(=O)n(-c3cccc(F)c3)c3cc(Cl)ccc23)C1 [Example 82, 1-(7-chloro-1-(3-fluorophenyl)-2-oxo-1,2-dihydroquinazolin-4-yl)azetidine-3-carbonitrile] |
| < 200 nM | COc1cccc(-n2c(=O)nc(N(C)C)c3ccc(Cl)cc32)c1 [Example 76] |
| < 200 nM | CN(C)c1nc(=O)n(-c2cccc(CCOc3ccccc3)c2)c2cc(Cl)ccc12 [Example 75, 7-chloro-4-(dimethylamino)-1-(3-(2-phenoxyethyl)phenyl)quinazolin-2(1H)-one] |

These compounds were tested against T1, hMAT2A (assay: Phosphate Sensor Fluorescence Assay (MAT2A enzyme inhibition)). Settings: L-methionine 500 uM, ATP 500 uM, class symbols.
Type: biochemical
Procedure, shortened: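 Recombinant MAT2A preincubated 15 min at room temperature with compound, then reacted 1 h at room temperature with 500 uM L-methionine and 500 uM ATP in Tris pH 7.5 buffer containing PNP/7-MEG.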

| IC50 | SMILES |
| --- | --- |
| < 200 nM | O=c1nc(N2CC[C@@H](O)C2)c2ccc(Cl)cc2n1-c1ccccc1Br [Example 87, 4-((3R)-3-hydroxypyrrolidin-1-yl)-1-(2-bromophenyl)-7-chlorohydroquinazolin-2-one] |
| < 200 nM | C[C@H]1CCCN1c1nc(=O)n(-c2ccccc2)c2nc(C(F)(F)F)ccc12 [Example 345, 4-((2S)-2-methylpyrrolidin-1-yl)-1-phenyl-7-(trifluoromethyl)pyrido[2,3-d]-pyrimidin-2(1H)-one] |
| < 200 nM | Nc1nc(=O)n(-c2ccccc2)c2cc(C(F)(F)F)ccc12 [Example 146, 4-amino-1-phenyl-7-(trifluoromethyl)-hydroquinazolin-2-one] |
| 200 to 500 nM | CNc1nc(=O)n(-c2cccc(C#N)c2)c2cc(Cl)ccc12 [Example 155, 3-[7-chloro-4-(methylamino)-2-oxo-hydroquinazolinyl]benzenecarbonitrile] |
| < 200 nM | O=c1nc(NCC2(O)CC2)c2ccc(C(F)(F)F)nc2n1-c1ccccc1Cl [Example 295, 1-(2-chlorophenyl)-4-{[(hydroxycyclo-propyl)methyl]amino}-7-(trifluoro-methyl)-pyrido[2,3-d]pyrimidin-2(1H)-one] |
| < 200 nM | CNc1nc(=O)n(-c2ccnc(O)c2)c2nc(C(F)(F)F)ccc12 [Example 391, 1-(2-hydroxypyridin-4-yl)-4-(methyl-amino)-7-(trifluoromethyl)-pyrido[2,3-d]pyrimidin-2(1H)-one] |
| 500 to 1000 nM | Nc1nc(=O)n(-c2ncccn2)c2cc(C(F)(F)F)ccc12 [Example 124, 4-amino-1-pyrimidin-2-yl-7-(trifluoro-methyl)hydroquinazolin-2-one] |
| < 200 nM | N#Cc1cccc(-n2c(=O)nc(N)c3ccc(C(F)(F)F)nc32)c1 [Example 168, 3-(4-amino-2-oxo-7-(trifluoromethyl)-pyrido[2,3-d]pyrimidin-1(2H)-yl)-benzonitrile] |
| < 200 nM | CC1(C)CCN(c2nc(=O)n(-c3ccccc3)c3cc(Cl)ccc23)C1 [Example 238, 4-(3,3-dimethylpyrrolidin-1-yl)-7-chloro-1-phenylhydroquinazolin-2-one] |
| < 200 nM | O=c1nc(NCC2CC2)c2ccc(C(F)(F)F)nc2n1-c1ccccc1Cl [Example 246] |
| < 200 nM | O=c1nc(NCC(F)F)c2ccc(C(F)(F)F)cc2n1-c1ccccc1 [Example 119, 4-[(2,2-difluoroethyl)amino]-1-phenyl-7-(trifluoromethyl)hydroquinazolin-2-one] |
| 1000 to 10000 nM | COc1nc(=O)n(-c2ncccn2)c2cc(C(F)(F)F)ccc12 [Example 120] |
| < 200 nM | Cc1ncccc1-n1c(=O)nc(NCC(F)F)c2ccc(C(F)(F)F)cc21 [Example 282, 4-((2,2-difluoroethyl)amino)-1-(2-methylpyridin-3-yl)-7-(trifluoromethyl)-quinazolin-2(1H)-one] |
